Measurements published in patent US20230146675A1, “PYRIMIDO[5,4-d]PYRIMIDINE DERIVATIVES AS ENT INHIBITORS FOR THE TREATMENT OF CANCERS, AND COMBINATION THEREOF WITH ADENOSINE RECEPTOR ANTAGONISTS” (ITEOS BELGIUM SA, priority 2020, published 2023).

target: T1, human ENT1 (Homo sapiens, UniProt Q99808); assay: ENT1 binding assay (competition with Sahenta-DY647 on JAR cells); design: JAR cells expressing ENT1 were bought from ATCC; host or cells: JAR cells; conditions: binned IC50
T1 sequence (Q99808 1-456): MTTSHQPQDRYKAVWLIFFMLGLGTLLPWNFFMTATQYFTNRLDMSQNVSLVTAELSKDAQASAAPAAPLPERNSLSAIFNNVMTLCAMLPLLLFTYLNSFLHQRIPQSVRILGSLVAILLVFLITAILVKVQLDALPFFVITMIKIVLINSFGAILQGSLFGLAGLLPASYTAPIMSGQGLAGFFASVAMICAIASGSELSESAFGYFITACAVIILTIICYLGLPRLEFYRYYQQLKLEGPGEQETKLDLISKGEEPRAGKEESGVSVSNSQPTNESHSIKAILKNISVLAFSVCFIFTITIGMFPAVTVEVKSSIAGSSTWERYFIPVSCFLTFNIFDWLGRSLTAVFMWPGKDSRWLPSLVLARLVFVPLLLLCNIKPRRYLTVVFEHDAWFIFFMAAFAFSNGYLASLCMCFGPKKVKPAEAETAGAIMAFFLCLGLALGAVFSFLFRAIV
Procedure, shortened: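 JAR cells were incubated with test compounds and the fluorescent ligand Sahenta-DY647 in competition. Plates were washed twice by centrifugation (4 min, 400 rcf, 4 °C). Binding potency was derived from the final fluorescence.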

Structure (SMILES) | IC50
COCCN(CCOC)c1nc(N2CCN(C)C(=O)C2)c2nc(N3CCn4nncc4C3)nc(N3CCC(OC)CC3)c2n1 [Compound 288, 4-(2-(bis(2-methoxyethyl)amino)-6-(6,7-dihydro-[1,2,3]triazolo[1,5-a]pyrazin-5(4H)-yl)-8-(4-methoxypiperidin-1-yl)pyrimido[5,4-d]pyrimidin-4-yl)-1-methylpiperazin-2-one] | 100 to 500 nM
COCCN(CCOC)c1nc(N2CC[C@H](F)C2)c2nc(N(CCOC)CCOC)nc(N3CCC(OC)CC3)c2n1 [Compound 102, (S)-4-(3-fluoropyrrolidin-1-yl)-N2,N2,N6,N6-tetrakis(2-methoxyethyl)-8-(4-methoxypiperidin-1-yl)pyrimido[5,4-d]pyrimidine-2,6-diamine] | < 100 nM
COCCN(CCOC)c1nc(N2CCN(c3ncn(C)n3)CC2)c2nc(N(CCOC)CCOC)nc(NCc3cccc(F)c3)c2n1 [Compound 220, N4-(3-fluorobenzyl)-N2,N2,N6,N6-tetrakis(2-methoxyethyl)-8-(4-(1-methyl-1H-1,2,4-triazol-3-yl)piperazin-1-yl)pyrimido[5,4-d]pyrimidine-2,4,6-triamine] | < 100 nM
COCCN(CCOC)c1nc(N2CCC(OC)CC2)c2nc(N3CCN(S(C)(=O)=O)CC3)nc(N3CCC(OC)CC3)c2n1 [Compound 30, N,N-bis(2-methoxyethyl)-4,8-bis(4-methoxypiperidin-1-yl)-6-(4-(methylsulfonyl)piperazin-1-yl)pyrimido[5,4-d]pyrimidin-2-amine] | 500 to 1000 nM
CCOCCN(CCOCC)c1nc(N2CCN(C)C(=O)C2)c2nc(N(CCOCC)CCOCC)nc(N3CCC(OC)CC3)c2n1 [Compound 199, 4-(2,6-bis(bis(2-ethoxyethyl)amino)-8-(4-methoxypiperidin-1-yl)pyrimido[5,4-d]pyrimidin-4-yl)-1-methylpiperazin-2-one] | < 100 nM
COCCN(CCOC)c1nc(N2CCN(c3nccc(OC)n3)CC2)c2nc(N(CCOC)CCOC)nc(N3CCC(OC)CC3)c2n1 [Compound 125, N2,N2,N6,N6-tetrakis(2-methoxyethyl)-4-(4-methoxypiperidin-1-yl)-8-(4-(4-methoxypyrimidin-2-yl)piperazin-1-yl)pyrimido[5,4-d]pyrimidine-2,6-diamine] | 100 to 500 nM
COCCN(CCOC)c1nc(N2CCC(OC)CC2)c2nc(N(CCOC)CCOC)nc(NCc3cnc(Cl)s3)c2n1 [Compound 160, N4-((2-chlorothiazol-5-yl)methyl)-N2,N2,N6,N6-tetrakis(2-methoxyethyl)-8-(4-methoxypiperidin-1-yl)pyrimido[5,4-d]pyrimidine-2,4,6-triamine] | 500 to 1000 nM
COCCN(CCOC)c1nc(N2CCC(OC)CC2)c2nc(N3CCn4cncc4C3)nc(N3CCN(C)C(=O)C3)c2n1 [Compound 297, 4-(6-(bis(2-methoxyethyl)amino)-2-(5,6-dihydroimidazo[1,5-a]pyrazin-7(8H)-yl)-8-(4-methoxypiperidin-1-yl)pyrimido[5,4-d]pyrimidin-4-yl)-1-methylpiperazin-2-one] | 100 to 500 nM
COCCN(CCOC)c1nc(N2CCCC(CO)C2)c2nc(N(CCOC)CCOC)nc(N3CCC(OC)CC3)c2n1 (centres unmarked) [Compound 115, (1-(2,6-bis(bis(2-methoxyethyl)amino)-8-(4-methoxypiperidin-1-yl)pyrimido[5,4-d]pyrimidin-4-yl)piperidin-3-yl)methanol] | 100 to 500 nM
COCCN(CCOC)c1nc(N2CCN(c3ncn(C)n3)CC2)c2nc(N(CCOC)CCOC)nc(N(C)Cc3cccc(Cl)c3)c2n1 [Compound 242, N4-(3-chlorobenzyl)-N2,N2,N6,N6-tetrakis(2-methoxyethyl)-N4-methyl-8-(4-(1-methyl-1H-1,2,4-triazol-3-yl)piperazin-1-yl)pyrimido[5,4-d]pyrimidine-2,4,6-triamine] | 500 to 1000 nM
COCCN(CCOC)c1nc(N2CCC(OC)CC2)c2nc(N(CCOC)CCOCCN3CCOCC3)nc(N3CCC(OC)CC3)c2n1 [Compound 45, N2,N2,N6-tris(2-methoxyethyl)-4,8-bis(4-methoxypiperidin-1-yl)-N6-(2-(2-morpholinoethoxy)ethyl)pyrimido[5,4-d]pyrimidine-2,6-diamine] | 100 to 500 nM
